According to patent US20250296936A1, “SARS-COV2 MAIN PROTEASE INHIBITORS” (Gilead Sciences, Inc., priority 2024, published 2025):
Where two headings read alike, the source gives them in different places.

Tested on: SARS-CoV-2-NLuc in A549-hACE2 cells
Test: microbe, parasite or virus in culture
Format: cell-based, SARS Coronavirus 2
[1] = Severe acute respiratory syndrome coronavirus, 48 h, read-out: MPro EC50 (nM)
[2] = Severe acute respiratory syndrome coronavirus, 48 h, read-out: MPro EC50

| Structure (SMILES) | EC50 [1] [nM] | other results |
| --- | --- | --- |
| COc1cc(-c2cc3c(o2)c(=O)n(-c2cncc4ccccc24)c(=O)n3CCC#N)c(Cl)cc1F (single isomer, unassigned) [Example 59, 3-[6-(2-chloro-4-fluoro-5-methoxy-phenyl)-3-(4-isoquinolyl)-2,4-dioxo-furo[3,2-d]pyrimidin-1-yl]propanenitrile] | – | EC50 (read-out: MPro EC50): 4.65 nM |
| COc1cc(-c2cc3c(o2)c(=O)n(-c2cncc4ccccc24)c(=O)n3CCC#N)c(Cl)cc1F (single isomer, unassigned) [Example 60, 3-[6-(2-chloro-4-fluoro-5-methoxy-phenyl)-3-(4-isoquinolyl)-2,4-dioxo-furo[3,2-d]pyrimidin-1-yl]propanenitrile] | – | EC50 (read-out: MPro EC50): 82.8 nM |
| Cn1ncc2cncc(-n3c(=O)c4oc(-c5ccccc5Cl)cc4n(CCC#N)c3=O)c21 (single isomer, unassigned) [Example 61, 3-[6-(2-chlorophenyl)-3-(1-methylpyrazolo[4,3-c]pyridin-7-yl)-2,4-dioxo-furo[3,2-d]pyrimidin-1-yl]propanenitrile] | – | EC50 (read-out: MPro EC50): 7.16 nM |
| Cn1ncc2cncc(-n3c(=O)c4oc(-c5ccccc5Cl)cc4n(CCC#N)c3=O)c21 (single isomer, unassigned) [Example 62, 3-[6-(2-chlorophenyl)-3-(1-methylpyrazolo[4,3-c]pyridin-7-yl)-2,4-dioxo-furo[3,2-d]pyrimidin-1-yl]propanenitrile] | – | EC50 (read-out: MPro EC50): 233 nM |
| COc1cc(-c2cc3c(o2)c(=O)n(-c2cncc4cnn(C)c24)c(=O)n3CCC#N)c(Cl)cc1F (single isomer, unassigned) [Example 63, 3-[6-(2-chloro-4-fluoro-5-methoxy-phenyl)-3-(1-methylpyrazolo[4,3-c]pyridin-7-yl)-2,4-dioxo-furo[3,2-d]pyrimidin-1-yl]propanenitrile] | – | EC50 (read-out: MPro EC50): 6.24 nM |
| COc1cc(-c2cc3c(o2)c(=O)n(-c2cncc4cnn(C)c24)c(=O)n3CCC#N)c(Cl)cc1F (single isomer, unassigned) [Example 64, 3-[6-(2-chloro-4-fluoro-5-methoxy-phenyl)-3-(1-methylpyrazolo[4,3-c]pyridin-7-yl)-2,4-dioxo-furo[3,2-d]pyrimidin-1-yl]propanenitrile] | – | EC50 (read-out: MPro EC50): 112 nM |
| COc1cc(-c2cc3c(o2)c(=O)n(-c2cncc4cccnc24)c(=O)n3CCC#N)c(Cl)cc1F (single isomer, unassigned) [Example 65, 3-(6-(2-chloro-4-fluoro-5-methoxyphenyl)-3-(1,6-naphthyridin-8-yl)-2,4-dioxo-3,4-dihydrofuro[3,2-d]pyrimidin-1(2H)-yl)propanenitrile] | – | EC50 (read-out: MPro EC50): 5.78 nM |
| COc1cc(-c2cc3c(o2)c(=O)n(-c2cncc4cccnc24)c(=O)n3CCC#N)c(Cl)cc1F (single isomer, unassigned) [Example 66, 3-(6-(2-chloro-4-fluoro-5-methoxyphenyl)-3-(1,6-naphthyridin-8-yl)-2,4-dioxo-3,4-dihydrofuro[3,2-d]pyrimidin-1(2H)-yl)propanenitrile] | – | EC50 (read-out: MPro EC50): 112 nM |
| COc1ccc(Cl)c(-c2cc3[nH]c(=O)n(-c4cncc5ccccc45)c(=O)c3o2)c1 [Example 3] | 23.3 | – |
| O=c1[nH]c2cc(-c3ccccc3Cl)oc2c(=O)n1-c1cncc2ccccc12 [Example 4, 6-(2-chlorophenyl)-3-(4-isoquinolyl)-1H-furo[3,2-d]pyrimidine-2,4-dione] | – | EC50 [2]: 273 nM |
| O=c1[nH]c2cc(-c3ccccc3Cl)oc2c(=O)n1-c1cncc2c1CCCC2 [Example 5] | 212 | – |
| Cn1ncc2cncc(-n3c(=O)[nH]c4cc(-c5ccccc5Cl)oc4c3=O)c21 [Example 6] | 174 | – |
| O=c1[nH]c2cc(-c3ccccc3Cl)oc2c(=O)n1-c1cncc2ccc(F)cc12 [Example 7] | 79.6 | – |
| Cc1cncc(-n2c(=O)[nH]c3cc(-c4ccccc4Cl)oc3c2=O)c1 [Example 8] | 137 | – |
| Cn1ncc2cncc(-n3c(=O)[nH]c4cc(-c5ccc(F)cc5Cl)oc4c3=O)c21 [Example 9] | – | EC50 [2]: 1010 nM |
| COc1ccc2cncc(-n3c(=O)[nH]c4cc(-c5ccccc5Cl)oc4c3=O)c2c1 [Example 10] | 95.6 | – |
| COc1cc(-c2cc3[nH]c(=O)n(-c4cncc5ccccc45)c(=O)c3o2)c(Cl)cc1F [Example 11, 6-(2-chloro-4-fluoro-5-methoxy-phenyl)-3-(4-isoquinolyl)-1H-furo[3,2-d]pyrimidine-2,4-dione] | – | EC50 [2]: 81.5 nM |
| COc1cc(-c2cc3[nH]c(=O)n(-c4cnnc(C)c4)c(=O)c3o2)c(Cl)cc1F [Example 12] | > 10000 | – |
| O=c1[nH]c2oc(-c3ccccc3)nc2c(=O)n1-c1cncc2ccccc12 [Example 13] | 4240 | – |

| Structure (SMILES) | EC50 [1] [nM] | other results |
| --- | --- | --- |
| O=c1[nH]c2oc(-c3ccccc3Cl)cc2c(=O)n1-c1cncc2ccccc12 [Example 14] | 3330 | – |
| COc1cc(-c2cc3[nH]c(=O)n(-c4cccnn4)c(=O)c3o2)c(Cl)cc1F [Example 15] | > 10000 | – |
| COc1cc(-c2cc3c(o2)c(=O)n(-c2cncc4ccccc24)c(=O)n3CCC#N)c(Cl)cc1F [Example 16, 3-(6-(2-chloro-4-fluoro-5-methoxyphenyl)-3-(isoquinolin-4-yl)-2,4-dioxo-3,4-dihydrofuro[3,2-d]pyrimidin-1(2H1)-yl)propanenitrile] | – | EC50 [2]: 4.36 nM |
| COc1cc(-c2cc3c(o2)c(=O)n(-c2cncc4cnn(C)c24)c(=O)n3CCC#N)c(Cl)cc1F [Example 17] | 20.7 | – |
| Cn1ncc2cncc(-n3c(=O)c4oc(-c5ccccc5Cl)cc4n(CCC#N)c3=O)c21 [Example 18] | 27.8 | – |
| N#CCCn1c(=O)n(-c2cncc3ccccc23)c(=O)c2oc(-c3ccccc3Cl)cc21 [Example 19] | 13 | – |
| COc1ccc2cncc(-n3c(=O)c4oc(-c5ccccc5Cl)cc4n(CCC#N)c3=O)c2c1 [Example 20] | 17.1 | – |
| N#CCCn1c(=O)n(-c2cncc3c2CCCC3)c(=O)c2oc(-c3ccccc3Cl)cc21 [Example 21] | 29.6 | – |
| N#CCCn1c(=O)n(-c2cncc3ccc(F)cc23)c(=O)c2oc(-c3ccccc3Cl)cc21 [Example 22] | 19 | – |
| Cc1cncc(-n2c(=O)c3oc(-c4ccccc4Cl)cc3n(CCC#N)c2=O)c1 [Example 23] | 24.1 | – |
| Cn1ncc2cncc(-n3c(=O)c4oc(-c5ccc(F)cc5Cl)cc4n(CCC#N)c3=O)c21 [Example 24] | 71.4 | – |
| N#CCCn1c(=O)n(-c2cncc3ccccc23)c(=O)c2oc(-c3ccc(F)cc3Cl)cc21 [Example 25] | 41.7 | – |
| COc1cc(-c2cc3c(o2)c(=O)n(-c2cccnn2)c(=O)n3CCC#N)c(Cl)cc1F [Example 26] | 408 | – |
| COc1cc(-c2cc3c(o2)c(=O)n(-c2cnnc(C)c2)c(=O)n3CCC#N)c(Cl)cc1F [Example 27] | 5250 | – |
| COc1cc(-c2cc3c(o2)c(=O)n(-c2cncc4ccccc24)c(=O)n3C)c(Cl)cc1F [Example 28, 6-(2-chloro-4-fluoro-5-methoxy-phenyl)-3-(4-isoquinolyl)-1-methyl-furo[3,2-d]pyrimidine-2,4-dione] | – | EC50 [2]: 288 nM |
| Cn1ncc2cncc(-n3c(=O)c4oc(-c5ccccc5Cl)cc4n(C)c3=O)c21 [Example 29] | 1170 | – |
| COc1cc(-c2cc3c(o2)c(=O)n(-c2cncc4cnn(C)c24)c(=O)n3C)c(Cl)cc1F [Example 30] | 683 | – |
| Cn1c(=O)n(-c2cncc3ccccc23)c(=O)c2oc(-c3ccccc3Cl)cc21 [Example 31] | 565 | – |
| COc1ccc2cncc(-n3c(=O)c4oc(-c5ccccc5Cl)cc4n(C)c3=O)c2c1 [Example 32] | 381 | – |

| Structure (SMILES) | EC50 [1] [nM] | other results |
| --- | --- | --- |
| Cn1c(=O)n(-c2cncc3ccccc23)c(=O)c2cc(-c3ccccc3Cl)oc21 [Example 33] | 145 | – |
| Cn1c(=O)n(-c2cncc3c2CCCC3)c(=O)c2oc(-c3ccccc3Cl)cc21 [Example 34] | 960 | – |
| Cc1cncc(-n2c(=O)c3oc(-c4ccccc4Cl)cc3n(C)c2=O)c1 [Example 35] | 726 | – |
| Cn1c(=O)n(-c2cncc3ccccc23)c(=O)c2oc(-c3ccc(F)cc3Cl)cc21 [Example 36] | 3270 | – |
| COc1cc(-c2cc3c(o2)c(=O)n(-c2cncc4ccccc24)c(=O)n3CC#N)c(Cl)cc1F [Example 37, 2-(6-(2-chloro-4-fluoro-5-methoxyphenyl)-3-(isoquinolin-4-yl)-2,4-dioxo-3,4-dihydrofuro[3,2-d]pyrimidin-1(2H)-yl)acetonitrile] | – | EC50 [2]: 15.8 nM |
| Cn1ncc2cncc(-n3c(=O)c4oc(-c5ccccc5Cl)cc4n(CC#N)c3=O)c21 [Example 38] | 88 | – |
| COc1cc(-c2cc3c(o2)c(=O)n(-c2cncc4cnn(C)c24)c(=O)n3CC#N)c(Cl)cc1F [Example 39] | 50.7 | – |
| N#CCn1c(=O)n(-c2cncc3ccccc23)c(=O)c2oc(-c3ccccc3Cl)cc21 [Example 40] | 20.1 | – |
| COc1ccc2cncc(-n3c(=O)c4oc(-c5ccccc5Cl)cc4n(CC#N)c3=O)c2c1 [Example 41] | 16.6 | – |
| N#CCn1c(=O)n(-c2cncc3c2CCCC3)c(=O)c2oc(-c3ccccc3Cl)cc21 [Example 42] | 36.7 | – |
| N#CCn1c(=O)n(-c2cncc3ccc(F)cc23)c(=O)c2oc(-c3ccccc3Cl)cc21 [Example 43] | 25.3 | – |
| Cc1cncc(-n2c(=O)c3oc(-c4ccccc4Cl)cc3n(CC#N)c2=O)c1 [Example 45] | 52.3 | – |
| N#CCn1c(=O)n(-c2cncc3ccccc23)c(=O)c2oc(-c3ccc(F)cc3Cl)cc21 [Example 46] | 58.4 | – |
| COc1cc(-c2cc3c(o2)c(=O)n(-c2cncc4ccccc24)c(=O)n3CC2(C#N)CC2)c(Cl)cc1F [Example 47, 1-((6-(2-chloro-4-fluoro-5-methoxyphenyl)-3-(isoquinolin-4-yl)-2,4-dioxo-3,4-dihydrofuro[3,2-d]pyrimidin-1(2H)-yl)methyl)cyclopropane-1-carbonitrile] | – | EC50 [2]: 29.4 nM |
| Cn1ncc2cncc(-n3c(=O)c4oc(-c5ccccc5Cl)cc4n(CC4(C#N)CC4)c3=O)c21 [Example 48] | 8.36 | – |
| COc1cc(-c2cc3c(o2)c(=O)n(-c2cncc4cnn(C)c24)c(=O)n3CC2(C#N)CC2)c(Cl)cc1F [Example 49] | 12.2 | – |
| N#CC1(Cn2c(=O)n(-c3cncc4ccccc34)c(=O)c3oc(-c4ccccc4Cl)cc32)CC1 [Example 50] | 6.99 | – |
| COc1ccc2cncc(-n3c(=O)c4oc(-c5ccccc5Cl)cc4n(CC4(C#N)CC4)c3=O)c2c1 [Example 51] | 12.1 | – |
